Experimental data: ChEMBL document CHEMBL1201862, “PubChem BioAssay data set” (2004)
Calls of active or inactive are those of the source.

Legend:
[1] = target: Heat shock protein HSP 90-alpha (Homo sapiens, UniProt P07900); format: functional, organism-based
[2] = target: T1, Oxysterols receptor LXR-beta (Homo sapiens, UniProt P55055); format: functional, cell-based;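 note: agonist activity at LXR measured by a cell-based luminescence readout across a dose range, run as a counterscreen for daf-12 agonists; HEK293 cells with Gal4-LXR fusion and GAL4-driven luciferase reporter; potency for activation of Gal4-LXR reporter so compounds are agonists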
T1 sequence (P55055 whole entry): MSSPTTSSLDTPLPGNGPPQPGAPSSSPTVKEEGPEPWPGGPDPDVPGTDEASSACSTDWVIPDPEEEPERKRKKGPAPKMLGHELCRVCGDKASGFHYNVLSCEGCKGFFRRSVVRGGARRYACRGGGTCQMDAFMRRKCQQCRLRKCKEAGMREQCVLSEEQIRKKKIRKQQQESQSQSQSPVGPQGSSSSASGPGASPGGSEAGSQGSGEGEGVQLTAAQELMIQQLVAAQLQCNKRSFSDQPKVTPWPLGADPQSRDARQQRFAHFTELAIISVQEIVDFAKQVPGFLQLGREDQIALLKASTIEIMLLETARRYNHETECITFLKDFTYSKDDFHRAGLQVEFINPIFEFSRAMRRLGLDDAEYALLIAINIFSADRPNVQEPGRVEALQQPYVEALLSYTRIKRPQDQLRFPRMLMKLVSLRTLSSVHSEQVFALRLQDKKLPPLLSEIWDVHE

[3] = target: Glyceraldehyde-3-phosphate dehydrogenase (Homo sapiens, UniProt P04406)
Chain of Glyceraldehyde-3-phosphate dehydrogenase (P04406 whole entry): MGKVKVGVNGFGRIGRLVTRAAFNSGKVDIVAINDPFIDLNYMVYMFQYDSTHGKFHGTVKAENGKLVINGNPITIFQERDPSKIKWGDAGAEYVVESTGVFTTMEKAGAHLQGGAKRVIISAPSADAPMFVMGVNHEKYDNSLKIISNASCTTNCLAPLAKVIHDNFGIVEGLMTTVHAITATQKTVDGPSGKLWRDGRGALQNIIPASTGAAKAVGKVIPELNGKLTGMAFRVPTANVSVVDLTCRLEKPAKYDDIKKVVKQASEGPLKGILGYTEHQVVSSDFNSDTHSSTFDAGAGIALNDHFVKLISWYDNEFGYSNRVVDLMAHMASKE

cells [4] = format: functional, cell-based
[5] = target: T2, Trace amine-associated receptor 1 (Homo sapiens, UniProt Q96RJ0); test: Fluorescence-based cell-based high throughput dose response assay to identify agonists of the human trace amine associated receptor 1 (TAAR1).; format: functional
T2 sequence (Q96RJ0 whole entry): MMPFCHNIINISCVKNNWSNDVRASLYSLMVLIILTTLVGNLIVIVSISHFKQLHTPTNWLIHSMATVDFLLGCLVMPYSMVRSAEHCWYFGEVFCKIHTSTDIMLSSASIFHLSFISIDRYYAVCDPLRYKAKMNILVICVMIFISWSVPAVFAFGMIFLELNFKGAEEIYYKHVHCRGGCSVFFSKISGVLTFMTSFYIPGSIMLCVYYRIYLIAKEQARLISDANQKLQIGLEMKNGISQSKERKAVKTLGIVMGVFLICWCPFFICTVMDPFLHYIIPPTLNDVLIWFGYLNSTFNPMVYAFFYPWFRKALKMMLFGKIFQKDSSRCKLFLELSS

[6] = target: T2, Trace amine-associated receptor 1; test: Counterscreen for agonists of the human trace amine associated receptor 1 (hTAAR1): Fluorescence-based cell-based high throughput dose response assay to identify hTAAR1 agonist that also desensitize TAAR1 receptor response.; format: functional
cells [7] = format: functional, cell-based; remark: listed apart in the source
[8] = target: T3, RNA-binding protein pos-1 (Caenorhabditis elegans, UniProt G5EF15); test: inhibitors of POS-1/mex-3 RNA binding, dose response, biochemical, fluorescence polarization (AID 1964);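 note: purified POS-1 fused to maltose binding protein made in E. coli; potency of compounds blocking POS-1 binding to fluorescent RNA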
T3 sequence (G5EF15 whole entry): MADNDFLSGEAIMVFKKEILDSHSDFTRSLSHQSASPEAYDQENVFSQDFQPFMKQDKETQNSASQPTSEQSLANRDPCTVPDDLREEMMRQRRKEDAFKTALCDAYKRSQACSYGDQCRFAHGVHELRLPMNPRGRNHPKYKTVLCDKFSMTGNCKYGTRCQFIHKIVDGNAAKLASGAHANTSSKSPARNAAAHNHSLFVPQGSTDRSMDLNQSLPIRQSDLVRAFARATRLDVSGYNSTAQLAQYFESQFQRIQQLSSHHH

[9] = target: T4, Zinc finger protein mex-5 (Caenorhabditis elegans, UniProt Q9XUB2); test: MEX-5/TCR-2 RNA interaction inhibitors, dose response, biochemical, C. elegans, fluorescence polarization (AID 1960)
T4 sequence (Q9XUB2 whole entry): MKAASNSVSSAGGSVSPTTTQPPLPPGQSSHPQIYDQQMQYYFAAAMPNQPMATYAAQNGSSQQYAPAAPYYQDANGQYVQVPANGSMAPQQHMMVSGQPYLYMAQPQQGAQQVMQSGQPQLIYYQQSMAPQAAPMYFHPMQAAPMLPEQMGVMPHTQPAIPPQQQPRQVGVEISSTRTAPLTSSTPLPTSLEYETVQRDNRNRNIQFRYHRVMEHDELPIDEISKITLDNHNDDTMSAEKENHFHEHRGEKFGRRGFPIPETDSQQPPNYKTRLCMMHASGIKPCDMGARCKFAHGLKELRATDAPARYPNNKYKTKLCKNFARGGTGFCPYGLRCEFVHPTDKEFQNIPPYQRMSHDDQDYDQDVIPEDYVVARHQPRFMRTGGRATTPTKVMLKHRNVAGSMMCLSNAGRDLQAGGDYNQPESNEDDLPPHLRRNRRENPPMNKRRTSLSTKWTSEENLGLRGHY

[10] = target: FAD-linked sulfhydryl oxidase ALR (Homo sapiens, UniProt P55789); test: inhibitors of human ALR sulfhydryl oxidase, dose response, biochemical, H2O2 detection, luminescence, cherry-pick (AID 493248)
Chain of FAD-linked sulfhydryl oxidase ALR (P55789 whole entry): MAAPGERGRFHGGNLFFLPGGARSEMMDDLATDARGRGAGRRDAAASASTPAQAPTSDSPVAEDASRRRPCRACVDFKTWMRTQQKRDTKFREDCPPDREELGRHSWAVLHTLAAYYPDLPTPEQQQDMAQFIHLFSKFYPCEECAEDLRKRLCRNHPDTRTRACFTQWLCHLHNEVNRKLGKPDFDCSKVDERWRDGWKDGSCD

cells [11] = format: functional
Genome polyprotein = Genome polyprotein (dengue virus type 2, UniProt P29990); test: Dengue-2 NS5 methyltransferase inhibitors, primary screen, biochemical, confirmation dose response (AID 588689); format: functional
Chain of Genome polyprotein (P29990 2492-3391 limits assumed): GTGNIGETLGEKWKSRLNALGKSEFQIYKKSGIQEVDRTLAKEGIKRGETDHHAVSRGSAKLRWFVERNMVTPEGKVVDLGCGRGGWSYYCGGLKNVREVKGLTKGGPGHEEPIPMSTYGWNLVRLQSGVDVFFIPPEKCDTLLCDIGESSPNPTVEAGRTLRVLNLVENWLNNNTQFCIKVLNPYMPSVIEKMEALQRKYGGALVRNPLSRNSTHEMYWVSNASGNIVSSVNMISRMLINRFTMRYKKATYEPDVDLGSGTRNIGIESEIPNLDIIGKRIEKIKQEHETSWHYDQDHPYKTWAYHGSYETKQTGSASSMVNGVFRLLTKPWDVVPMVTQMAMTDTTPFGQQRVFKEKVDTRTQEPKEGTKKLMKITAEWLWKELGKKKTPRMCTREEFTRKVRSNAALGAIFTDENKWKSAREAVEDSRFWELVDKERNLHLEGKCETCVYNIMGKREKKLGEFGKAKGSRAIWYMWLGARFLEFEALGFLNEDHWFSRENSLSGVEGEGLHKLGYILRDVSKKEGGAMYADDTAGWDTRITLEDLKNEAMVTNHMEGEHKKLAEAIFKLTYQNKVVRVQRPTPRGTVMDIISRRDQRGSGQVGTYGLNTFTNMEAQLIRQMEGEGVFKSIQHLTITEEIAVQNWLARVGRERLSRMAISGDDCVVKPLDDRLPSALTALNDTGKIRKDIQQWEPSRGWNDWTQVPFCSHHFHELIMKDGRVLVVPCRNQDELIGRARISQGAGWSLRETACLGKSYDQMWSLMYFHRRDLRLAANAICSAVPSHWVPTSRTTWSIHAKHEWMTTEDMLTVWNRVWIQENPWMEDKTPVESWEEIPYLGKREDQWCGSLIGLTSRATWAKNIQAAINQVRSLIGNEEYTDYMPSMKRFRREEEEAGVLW

With `COc1ccc(-c2nn(-c3ccccc3)cc2C(=O)N2CCN(S(=O)(=O)c3ccccc3[N+](=O)[O-])CC2)cc1` the AC50 [1] was 3.97 µM (active).

In the case of `CCN1C(=O)/C(=C/Nc2ccccc2)SC1=S`, the EC50 [2] is reported as > 67.5 µM (inactive).

For `C/C(=C\C(=O)c1sccc1Cl)N(C)C`, the EC50 [2] was > 67.6 µM (inactive).

With `COc1cccc(N2C(=O)C(Cl)=C(N3CCN(c4ccccc4)CC3)C2=O)c1` the IC50 [3] was > 50 µM (inconclusive).

For `COc1cccc(C)c1NC1=NCCO1`, the IC50 (cells [4]) was > 29.9 µM (inactive), the EC50 [5] was 0.734 µM (active) and the IC50 [6] was 4.12 µM (active). The EC50 (cells [7]) was > 29.9 µM (inactive).

With `Cc1cnc(NC(=O)COc2ccc3c(c2)CCC3)s1` the EC50 [2] was > 67.6 µM (inactive).

In the case of `O=C1CC(N2CCC(c3nc4ccccc4o3)CC2)C(=O)N1c1ccc(Cl)c(C(F)(F)F)c1` (configuration not stated), the AC50 [1] is reported as 2.08 µM (active).

With `Cc1ccc(Sc2ccc(C=C3C(=O)N(C)C(=O)N(C)C3=O)o2)cc1` the EC50 [8] was > 300 µM (not active), the EC50 [9] was 25.5 µM (inconclusive) and the AC50 [10] was 0.25 µM (active). For the same molecule, the IC50 (cells [11]) was 21.4 µM (active) and the IC50 (Genome polyprotein) was 14.5 µM (active).

In the case of `COCCN1C(=O)/C(=C/c2c(OC)cc(OC)cc2OC)C(=O)N(c2ccccc2)C1=O`, the EC50 [8] is reported as 131 µM (active) and the EC50 [9] is reported as > 300 µM (not active).

For `O=C(CNC(=O)c1ccccc1F)N/N=C\C=C\c1ccccc1`, the IC50 (cells [4]) was > 29.9 µM (inactive), the EC50 [5] was > 29.9 µM (inactive) and the IC50 [6] was 9.57 µM (active). The EC50 (cells [7]) was > 29.9 µM (inactive).

With `CCSCC(C)(C)n1[nH]c2ccccc2c1=O` the EC50 [2] was > 67.6 µM (inactive).
